This is an account of results in BindingDB's records for doi:10.1016/j.bmcl.2010.09.092 (University of New Mexico School of Medicine, 2010).

The structures appear in SMILES notation.

The experiment is described as follows: Inhibition of human alphaVbeta3 receptor expressed in african green monkey Vero E6 cells assessed as inhibition of SNV infection in cells by immunofluorescent assay.
For the molecule `O=C(NCc1cccs1)C(Cc1ccccc1)NS(=O)(=O)c1ccc2nsnc2c1` (racemic) [rac-2-(benzo[c][1,2,5]thiadiazole-5-sulfonamido)-3-phenyl-N-(thiophen-2-ylmethyl)propanamide], the EC50 stood at 2.5 nM.
The same measure for `O=C(NCc1ccc2c(c1)OCO2)C(Cc1ccccc1)NS(=O)(=O)c1cccc2cccnc12` (racemic) [rac-N-(benzo[d][1,3]dioxol-5-ylmethyl)-3-phenyl-2-(quinoline-8-sulfonamido)propanamide]: 1.6 nM.
For `O=c1c(C=NCc2ccco2)c(CSc2ccc(Cl)cc2)[nH]n1-c1nc2ccccc2s1` [2-(benzo[d]thiazol-2-yl)-5-((4-chlorophenylthio)methyl)-4-((furan-2-ylmethylimino)methyl)-1H-pyrazol-3(2H)-one], the EC50 worked out at 1.3 nM.
